Tests used:
Aurora A = biological target: T1, Aurora A (Homo sapiens, UniProt O14965); assay: Aurora A inhibitory action (33P-ATP kinase assay, Kemptide substrate); format: biochemical; details: 20 μM ATP, 30° C., 20 minutes
T1 construct: histidine tag (N); made in house; host or cells: Escherichia coli BL21-CodonPlus(DE3)-RIL
T1 sequence (O14965 1-403): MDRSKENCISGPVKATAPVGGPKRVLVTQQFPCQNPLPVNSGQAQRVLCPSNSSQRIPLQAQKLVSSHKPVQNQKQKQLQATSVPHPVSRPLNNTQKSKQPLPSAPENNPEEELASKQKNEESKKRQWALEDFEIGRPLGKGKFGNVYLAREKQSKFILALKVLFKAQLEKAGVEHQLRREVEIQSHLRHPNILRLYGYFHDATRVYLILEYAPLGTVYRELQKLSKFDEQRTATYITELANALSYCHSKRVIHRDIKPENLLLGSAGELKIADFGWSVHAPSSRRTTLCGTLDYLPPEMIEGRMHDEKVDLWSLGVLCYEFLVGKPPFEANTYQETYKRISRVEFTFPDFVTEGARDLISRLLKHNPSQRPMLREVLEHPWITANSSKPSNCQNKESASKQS
Method in brief: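 His-tagged Aurora A expressed in E. coli, Ni-purified; reaction in 50 mM Tris pH 7.4, 15 mM Mg acetate, 0.2 mM EDTA with 100 μM Kemptide, 20 μM ATP plus [γ-33P]ATP, 20 min at 30 °C. Phosphopeptide captured on P81 filters and counted by scintillation; DMSO control.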

Aurora B = biological target: T2, Aurora B (Homo sapiens, UniProt Q96GD4); assay: Aurora B inhibitory action (33P-ATP kinase assay, Kemptide substrate); format: biochemical; details: 100 μM ATP, 30° C., 20 minutes
T2 construct: histidine tag (N); made in house; host or cells: Escherichia coli BL21-CodonPlus(DE3)-RIL
Method in brief: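 His-tagged Aurora B expressed in E. coli, reacted with 100 μM Kemptide, 100 μM ATP plus [γ-33P]ATP in Tris pH 7.4, 15 mM Mg acetate, 0.2 mM EDTA, 30 °C, 20 min. Peptide captured on P81 filters for scintillation counting; compounds added from DMSO dilutions.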

[1] = test system: Human cervical cancer cells (HeLa S3); assay: Cell growth inhibitory effect, WST-8 method; format: cell-based; details: 72 h, HeLa S3, three days incubation
From the text: Method for Judging the Pharmaceutical Effect Using cells
Fetal calf serum (FCS) was purchased from Moregate Biotech, and DMEM medium was purchased from Invitrogen Corp. WST-8 was purchased from Kishida Chemical Co., Ltd.
(§1) Human cervical cancer cells (HeLa S3) were obtained from the American Type Culture Collection (ATCC).
(§2) c) Method of Judging the Effect
Cells were suspended in a DMEM medium containing 10% FCS, and the cell suspension was dispensed to a 96-well plastic plate at a rate of 750 cells/l 00 microliters per well. The plate was incubated overnight in 5% CO2-95% air at 37° C. A drug was subjected to graded dilution in dimethylsulfoxide and further diluted with a DMEM medium containing 10% FCS. Then, the dilution was dispensed to the plate on which cells had been disseminated, at a rate of 100 microliters per well. The plate was incubated for further three days in 5% CO2-95% air at 37° C. Cell growth after incubation was measured by the WST-8 method (H. Tominaga, et al., Anal. Commun., 36, 47-50 (1999)). Here, the WST-8 method refers to a method in which 20 microliters of a WST-8 reagent solution is added to each well, incubation is conducted at 37° C. for 45 minutes, the plate is stirred, and the amount of formazan produced is measured by a calorimetric method to determine the inhibitory rate of the drug. The concentration for 50% growth inhibition (EC50, IM) of the compound was determined.

[2] = test system: Human cervical cancer cells (HeLa S3); assay: Effect by combined use of drugs in cells (with paclitaxel), WST-8 method; format: cell-based; details: three days; for inhibition at 0.3 µM: HeLa S3, compound 0.3 μM alone; for inhibition at 1 µM: HeLa S3, compound 1.0 μM alone
From the text: Method for Judging the Effect by Combined Use of Drugs in Cells
Fetal calf serum (FCS) was purchased from Moregate Biotech, DMEM medium from Invitrogen Corp., paclitaxel (tradename: Taxol) from Sigma-Aldrich, Inc., and WST-8 from Kishida Chemical Co., Ltd.
as §1, §2
Cells were suspended in a DMEM medium containing 10% FCS, and the cell suspension was dispensed to two 96-well plastic plates at a rate of 750 cells/100 microliters per well. The plates were incubated overnight in 5% CO2-95% air at 37° C. A drug was subjected to graded dilution in dimethylsulfoxide and flurther diluted with DMSO or with a DMEM medium containing 10% FCS and also containing 2 nM paclitaxel. Then, the dilutions were each dispensed to one of the plates on which cells had been disseminated, at a rate of 100 microliters per well. The final concentration of paclitaxel at this stage was 1 nM. Also, the concentrations in the case of sole administration of the compound according to the invention were 0.03, 0.1, 0.3, 1 and 3 μM. The plates were incubated for further three days in 5% CO2-95% air at 37° C. Cell growth after incubation was measured by the WST-8 method (H. Tominaga, et al., Anal. Commun., 36, 47-50 (1999)). Here, the WST-8 method refers to a method in which 20 microliters of a WST-8 reagent solution is added to each well, incubation is conducted at 37° C. for 45 minutes, the plate is stirred, and the amount of formazan produced is measured by a colorimetric method to determine the inhibitory rate of the drug. The growth inhibitory effects of paclitaxel and of the compound according to the invention were determined, with the value obtained in sole treatment of DMSO being defined as 0%.

[3] = HeLa S3, compound 0.3 μM + paclitaxel 1 nM
[4] = Homo sapiens, HeLa S3, 72 h, read-out: Cell growth inhibitory effect by sole administration of the compound of Example (%)
[5] = HeLa S3, compound 1.0 μM + paclitaxel 1 nM

T2 sequence (Q96GD4 whole entry): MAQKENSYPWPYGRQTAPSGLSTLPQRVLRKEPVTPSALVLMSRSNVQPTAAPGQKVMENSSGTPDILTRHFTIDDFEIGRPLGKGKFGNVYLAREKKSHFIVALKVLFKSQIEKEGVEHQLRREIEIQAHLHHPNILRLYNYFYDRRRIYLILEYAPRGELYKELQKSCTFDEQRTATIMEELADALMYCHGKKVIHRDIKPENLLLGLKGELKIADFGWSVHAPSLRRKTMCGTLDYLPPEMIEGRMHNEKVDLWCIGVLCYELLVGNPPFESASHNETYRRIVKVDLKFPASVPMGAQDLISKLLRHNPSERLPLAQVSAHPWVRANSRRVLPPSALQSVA

Row | SMILES | IC50 (Aurora A) [nM] | IC50 (Aurora B) [nM] | IC50 [1] [nM] | Cell growth inhibitory effect by combined administration of paclitaxel and the compound of Example (%) [2, 3] [%] | inhibition at 0.3 µM [2, 4] [%] | melting point [°C] | Cell growth inhibitory effect by combined administration of paclitaxel and the compound of Example (%) ([2]; HeLa S3, compound 0.1 μM + paclitaxel 1 nM) | inhibition at 0.1 µM ([2]; Homo sapiens, HeLa S3, 72 h, HeLa S3, compound 0.1 μM alone, read-out: Cell growth inhibitory effect by sole administration of the compound of Example (%)) [%] | Cell growth inhibitory effect by combined administration of paclitaxel and the compound of Example (%) [2, 5] [%] | inhibition at 1 µM [2, 4] [%]
1 | O=C(c1cccc(C(F)(F)F)c1F)N1CCN(Cc2cncc(Nc3cc[nH]n3)n2)CC1 [Example 44, 6-((4-(2-fluoro-3-(trifluoromethyl)benzoyl)piperazin-1-yl)methyl)-N-1H-pyrazol-3-ylpyrazin-2-amine] | 0.89 | 1100 | 2400 | 86.5 | 7.1 | 160 to 163 |  |  |  | 
2 | O=C(c1cccc(Cl)c1F)N1CCN(Cc2cccc(Nc3nccs3)n2)CC1 [Example 5, 6-((4-(3-chloro-2-fluorobenzoyl)piperazin-1-yl)methyl)-N-thiazol-2-ylpyridin-2-amine] | 0.67 | 440 | 11000 |  |  |  | 72.8 | 0 |  | 
3 | O=C(c1cccc(Cl)c1Cl)N1CCN(Cc2cccc(Nc3nccs3)n2)CC1 [Example 6, 6-((4-(2,3-dichlorobenzoyl)piperazin-1-yl)methyl)-N-thiazol-2-ylpyridin-2-amine] | 0.5 | 200 | 400 | 89.0 | 19.6 |  |  |  |  | 
4 | O=C(c1cccc(C(F)(F)F)c1F)N1CCN(Cc2cccc(Nc3ncns3)n2)CC1 [Example 40, 6-((4-(2-fluoro-3-(trifluoromethyl)benzoyl)piperazin-1-yl)methyl)-N-1,2,4-thiadiazol-5-ylpyridin-2-amine] | 0.99 | 1900 | 6500 |  |  |  |  |  | 76.9 | 6.5
5 | O=C(c1cccc(C(F)F)c1F)N1CCN(Cc2cccc(Nc3cc[nH]n3)n2)CC1 [Example 22, 6-((4-(3-(difluoromethyl)-2-fluorobenzoyl)piperazin-1-yl)methyl)-N-1H-pyrazol-3-ylpyridin-2-amine] | 2.9 | 1500 | 3500 |  |  |  |  |  | 80.9 | 18.5
6 | O=C(c1cccc(Cl)c1Cl)N1CCN(Cc2cccc(Nc3cc[nH]n3)n2)CC1 [Example 17, 6-((4-(2,3-dichlorobenzoyl)piperazin-1-yl)methyl)-N-1H-pyrazol-3-ylpyridin-2-amine] | 1.2 | 3200 | 1100 | 73.8 | 0 |  |  |  |  | 
